From ChEMBL document CHEMBL6177932 (J Med Chem, 2024)
The source made the active and inactive calls. No cut-off for these calls is given here.

Assays:
[1] = system: 4T1; conditions: Mus musculus, time 24.0 hrs
[2] = system: 4TO7; test: Inhibition of class 1 HDAC in mouse 4TO7 cells assessed as induction of H3K27 acetylation at 10 uM measured after 6 hrs by Western blot analysis; assay type: cell-based
[3] = target: T1, Vitamin D3 receptor (Mus musculus) (UniProt P48281); test: Agonist activity at VDR in mouse 4T1 cells assessed as induction of Cyp24a1 gene at 0.1 to 10 uM measured after 24 hrs by RT-qPCR analysis; assay type: cell-based; conditions: filed as agonist, dose 0.1-10 µM
T1 sequence (whole entry): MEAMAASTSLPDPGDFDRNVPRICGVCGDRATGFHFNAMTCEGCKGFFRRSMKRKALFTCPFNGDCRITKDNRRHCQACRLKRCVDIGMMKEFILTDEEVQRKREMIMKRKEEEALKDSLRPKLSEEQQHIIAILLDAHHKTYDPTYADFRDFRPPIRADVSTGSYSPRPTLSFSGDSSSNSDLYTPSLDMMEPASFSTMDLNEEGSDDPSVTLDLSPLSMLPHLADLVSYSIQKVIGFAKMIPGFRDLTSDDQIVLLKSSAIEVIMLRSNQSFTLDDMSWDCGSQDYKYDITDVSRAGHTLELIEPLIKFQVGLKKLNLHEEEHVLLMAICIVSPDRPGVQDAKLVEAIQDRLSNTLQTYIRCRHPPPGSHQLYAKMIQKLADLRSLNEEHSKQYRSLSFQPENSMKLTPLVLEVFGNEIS

[4] = system: 4TO7; test: Inhibition of class 1 HDAC in mouse 4TO7 cells assessed as induction of H3K9 acetylation at 10 uM measured after 6 hrs by Western blot analysis; assay type: cell-based
[5] = target: T2, Protein deacetylase HDAC6 (Mus musculus) (UniProt Q9Z2V5); test: Inhibition of HDAC6 in mouse 4TO7 cells assessed as induction of tubulin acetylation at 10 uM measured after 6 hrs by Western blot analysis; assay type: cell-based
T2 sequence (whole entry): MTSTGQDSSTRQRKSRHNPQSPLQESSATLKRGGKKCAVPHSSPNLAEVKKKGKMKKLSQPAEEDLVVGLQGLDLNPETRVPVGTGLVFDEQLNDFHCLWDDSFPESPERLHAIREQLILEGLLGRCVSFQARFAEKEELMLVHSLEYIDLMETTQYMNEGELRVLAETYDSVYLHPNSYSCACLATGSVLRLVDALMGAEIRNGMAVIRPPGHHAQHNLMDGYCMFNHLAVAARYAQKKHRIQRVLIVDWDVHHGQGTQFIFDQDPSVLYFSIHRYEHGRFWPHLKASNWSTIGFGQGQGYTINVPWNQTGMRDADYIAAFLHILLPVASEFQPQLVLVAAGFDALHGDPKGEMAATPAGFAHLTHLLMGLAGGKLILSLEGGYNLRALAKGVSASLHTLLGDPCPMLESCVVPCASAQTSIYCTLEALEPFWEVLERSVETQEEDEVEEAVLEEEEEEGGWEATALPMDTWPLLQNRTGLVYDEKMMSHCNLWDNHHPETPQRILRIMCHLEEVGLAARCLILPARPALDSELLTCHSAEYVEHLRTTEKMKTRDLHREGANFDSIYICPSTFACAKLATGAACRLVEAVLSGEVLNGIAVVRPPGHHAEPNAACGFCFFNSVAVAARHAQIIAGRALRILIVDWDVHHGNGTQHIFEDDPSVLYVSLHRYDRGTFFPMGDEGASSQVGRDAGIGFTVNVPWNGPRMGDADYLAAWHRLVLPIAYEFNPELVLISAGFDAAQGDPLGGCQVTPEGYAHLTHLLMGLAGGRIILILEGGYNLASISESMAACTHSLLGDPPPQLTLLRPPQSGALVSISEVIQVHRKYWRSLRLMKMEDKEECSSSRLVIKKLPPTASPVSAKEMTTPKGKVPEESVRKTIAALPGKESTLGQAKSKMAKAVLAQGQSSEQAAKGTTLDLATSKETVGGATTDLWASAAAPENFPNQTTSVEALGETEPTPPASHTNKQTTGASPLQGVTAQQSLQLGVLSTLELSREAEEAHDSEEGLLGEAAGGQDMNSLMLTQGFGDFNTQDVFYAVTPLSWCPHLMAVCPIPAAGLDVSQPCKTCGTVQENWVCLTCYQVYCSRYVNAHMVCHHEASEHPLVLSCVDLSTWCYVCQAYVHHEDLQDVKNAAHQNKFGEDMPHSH

[6] = target: T1, Vitamin D3 receptor (Mus musculus); test: Agonist activity at VDR in mouse 4TO7 cells assessed as induction of Cyp24a1 gene at 0.1 to 10 uM measured after 24 hrs by RT-qPCR analysis; assay type: cell-based; conditions: filed as agonist, dose 0.1-10 µM
[7] = system: Mus musculus; test: Immunomodulatory activity in mouse 4T1 cells implanted BALB/c mouse assessed as reduction in Ccl20 gene expression at 0.2 mg/kg, ip administered daily for 18 days by RT-qPCR analysis; assay type: functional, organism-based; conditions: time 18.0 day
[8] = target: T2, Protein deacetylase HDAC6 (Mus musculus); test: Inhibition of HDAC6 in mouse 4T1 cells assessed as induction of tubulin acetylation at 10 uM measured after 6 hrs by Western blot analysis; assay type: cell-based
[9] = Toxicity in mouse B16-F10 cells implanted C57BL/6 mouse assessed as effect on body weight at 0.2 mg/kg, ip administered daily for 28 days; assay type: organism-based; conditions: in vivo, time 28 day
[10] = system: Mus musculus; test: Immunomodulatory activity in mouse 4T1 cells implanted BALB/c mouse assessed as induction of Il1a gene expression at 0.2 mg/kg, ip administered daily for 18 days by RT-qPCR analysis; assay type: functional, organism-based; conditions: time 18.0 day
[11] = system: B16-F10; test: Antitumor activity against mouse B16-F10 cells implanted in C57BL/6 mouse assessed as reduction in tumor burden at 0.2 mg/kg, ip administered every second day for 18 days; assay type: functional, organism-based; conditions: time 18.0 day
[12] = Toxicity in 4T1 cells implanted BALB/c mouse assessed as stress at 0.2 mg/kg, ip administered daily for 18 days; assay type: organism-based; conditions: in vivo, 432 h, time 18 day
[13] = Toxicity in mouse B16-F10 cells implanted C57BL/6 mouse at 0.2 mg/kg, ip administered daily for 28 days; assay type: organism-based; conditions: in vivo, time 28 day
[14] = system: B16-F10; test: Cytotoxicity against mouse B16-F10 cells assessed as reduction in cell viability at 0.01 to 100 uM measured after 24 hrs by RealTime-glo cell viability assay; assay type: functional, cell-based; conditions: dose 0.01-100 µM
[15] = system: 4T1; test: Inhibition of class 1 HDAC in mouse 4T1 cells assessed as induction of H3K27 acetylation at 10 uM measured after 6 hrs by Western blot analysis; assay type: cell-based
[16] = system: 4T1; test: Antitumor activity against mouse 4T1 cells implanted in BALB/c mouse assessed as reduction in tumor burden at 0.2 mg/kg, ip administered daily for 18 days; assay type: functional, organism-based; conditions: time 18.0 day
[17] = system: 4T1; test: Inhibition of class 1 HDAC in mouse 4T1 cells assessed as induction of H3K9 acetylation at 10 uM measured after 6 hrs by Western blot analysis; assay type: cell-based
[18] = system: Mus musculus; test: Immunomodulatory activity in mouse 4T1 cells implanted BALB/c mouse assessed as reduction in Ccl2 gene expression at 0.2 mg/kg, ip administered daily for 18 days by RT-qPCR analysis; assay type: functional, organism-based; conditions: time 18.0 day
[19] = system: Mus musculus; test: Immunomodulatory activity in mouse 4T1 cells implanted BALB/c mouse assessed as reduction in Cxcl10 gene expression at 0.2 mg/kg, ip administered daily for 18 days by RT-qPCR analysis; assay type: functional, organism-based; conditions: time 18.0 day
[20] = system: Mus musculus; test: Immunomodulatory activity in mouse 4T1 cells implanted BALB/c mouse assessed as reduction in Ccl5 gene expression at 0.2 mg/kg, ip administered daily for 18 days by RT-qPCR analysis; assay type: functional, organism-based; conditions: time 18.0 day
[21] = Toxicity in 4T1 cells implanted BALB/c mouse assessed as body weight loss at 0.2 mg/kg, ip administered daily for 18 days; assay type: organism-based; conditions: in vivo, 432 h, time 18 day
[22] = Toxicity in mouse B16-F10 cells implanted C57BL/6 mouse assessed as effect on body weight at 50 mg/kg, ip administered daily for 28 days; assay type: organism-based; conditions: in vivo, time 28 day
[23] = system: B16-F10; test: Antitumor activity against mouse B16-F10 cells implanted in C57BL/6 mouse assessed as reduction in tumor burden at 50 mg/kg, ip administered every second day for 18 days; assay type: functional, organism-based; conditions: time 18.0 day
[24] = Toxicity in mouse B16-F10 cells implanted C57BL/6 mouse at 50 mg/kg, ip administered daily for 28 days; assay type: organism-based; conditions: in vivo, time 28 day
[25] = system: B16-F10; test: Inhibition of class 1 HDAC in mouse B16-F10 cells assessed as induction of H3K9 acetylation at 10 uM measured after 6 hrs by Western blot analysis; assay type: cell-based
[26] = target: T2, Protein deacetylase HDAC6 (Mus musculus); test: Inhibition of HDAC6 in mouse B16-F10 cells assessed as induction of tubulin acetylation at 10 uM measured after 6 hrs by Western blot analysis; assay type: cell-based
[27] = system: B16-F10; test: Inhibition of class 1 HDAC in mouse B16-F10 cells assessed as induction of H3K27 acetylation at 10 uM measured after 6 hrs by Western blot analysis; assay type: cell-based

Question: What does the source list for `CCC(CC)(c1ccc(C(=O)NCCCC(=O)NO)cc1)c1ccc(OCC(O)C(C)(C)C)c(C)n1` (configuration not stated)?
Answer: Activity [1]: Active; inhibition [2]: Active; Activity [3]: Active; Did Not Appear To Be A Full Agonist; inhibition [4]: Active; inhibition [5]: Active; Activity [6]: Active

Question: Which Activity [7] does the source give for `CCC(CC)(c1ccc(OCCCCCC(=O)NO)cc1)c1ccc(OCC(O)C(C)(C)C)c(C)n1` (configuration not stated) here?
Answer: Active

Question: What about the inhibition [8] of the same compound?
Answer: Active

Question: What about the Activity [9] of the same compound?
Answer: Non-toxic

Question: What about the Activity [10] of the same compound?
Answer: Active

Question: What about the Activity [11] of the same compound?
Answer: Active

Question: What about the Activity [12] of the same compound?
Answer: Non-toxic

Question: What about the Activity [13] of the same compound?
Answer: Non-toxic

Question: And the Activity [14]?
Answer: Active

Question: What about the inhibition [15] of the same compound?
Answer: Active

Question: And the Activity [16]?
Answer: Active

Question: What about the inhibition [17] of the same compound?
Answer: Active

Question: What about the Activity [18] of the same compound?
Answer: Active

Question: And the Activity [3]?
Answer: Active

Question: And the Activity [19]?
Answer: Active

Question: What about the Activity [6] of the same compound?
Answer: Active

Question: And the Activity [20]?
Answer: Active

Question: What about the Activity [21] of the same compound?
Answer: Non-toxic

Question: With `CCC(CC)(c1ccc(C(=O)NCCCCCC(=O)NO)cc1)c1ccc(OCC(O)C(C)(C)C)c(C)n1` (configuration not stated) as the compound, how does the Activity [1] read?
Answer: Active

Question: What about the inhibition [2] of the same compound?
Answer: Active

Question: And the Activity [3]?
Answer: Active; Did Not Appear To Be A Full Agonist

Question: And the inhibition [4]?
Answer: Active

Question: And the inhibition [5]?
Answer: Active

Question: What about the Activity [6] of the same compound?
Answer: Active

Question: What does the source list for `Nc1ccn([C@@H]2O[C@H](CO)[C@@H](O)C2(F)F)c(=O)n1` [GEMCITABINE]?
Answer: Activity [22]: Non-toxic; Activity [23]: Active; Activity [24]: Non-toxic

Question: With `CCC(CC)(c1ccc(C(=O)NCCCCCC(=O)NO)cc1)c1ccc(OCC(O)C(C)(C)C)c(C)c1` (configuration not stated) as the compound, how does the inhibition [25] read?
Answer: Active; High Levels Of Acetylation Observed

Question: What about the inhibition [26] of the same compound?
Answer: Active; High Levels Of Acetylation Observed

Question: And the inhibition [27]?
Answer: Active; High Levels Of Acetylation Observed

Question: And the Activity [3]?
Answer: Active

Question: And the Activity [6]?
Answer: Active
